Results reported in the NIST ThermoML archive (doi:10.1021/je800925v).

Assay: xn = mol fraction of the nth substance listed
Conditions: Liquid

CCCCCC [hexane] + CCO
Conditions | mass density [kg/m3] | viscosity [mPa·s]
273.15 K, x2 = 0.101 | 688.8 | 0.3638
273.15 K, x2 = 0.198 | 694.5 | 0.4
273.15 K, x2 = 0.302 | 702 | 0.4511
273.15 K, x2 = 0.401 | 712.1 | 0.5478
273.15 K, x2 = 0.496 | 721.4 | 0.6415
273.15 K, x2 = 0.6 | 732.7 | 0.77
273.15 K, x2 = 0.701 | 744.1 | 0.8963
273.15 K, x2 = 0.793 | 760.4 | 1.096
273.15 K, x2 = 0.901 | 781.1 | 1.377
275.65 K, x2 = 0.101 | 686.5 | 0.3563
275.65 K, x2 = 0.198 | 692.3 | 0.3904
275.65 K, x2 = 0.302 | 699.7 | 0.4388
275.65 K, x2 = 0.401 | 709.8 | 0.5294
275.65 K, x2 = 0.496 | 719.2 | 0.6182
275.65 K, x2 = 0.6 | 730.5 | 0.7386
275.65 K, x2 = 0.701 | 741.9 | 0.8583
275.65 K, x2 = 0.793 | 758.3 | 1.047
275.65 K, x2 = 0.901 | 779 | 1.311
278.15 K, x2 = 0.101 | 684.3 | 0.3492
278.15 K, x2 = 0.198 | 690 | 0.3812
278.15 K, x2 = 0.302 | 697.5 | 0.4269
278.15 K, x2 = 0.401 | 707.6 | 0.5119
278.15 K, x2 = 0.496 | 716.9 | 0.5956
278.15 K, x2 = 0.6 | 728.3 | 0.709
278.15 K, x2 = 0.701 | 739.7 | 0.8224
278.15 K, x2 = 0.793 | 756.1 | 1
278.15 K, x2 = 0.901 | 776.8 | 1.25
280.65 K, x2 = 0.101 | 682 | 0.3422
280.65 K, x2 = 0.198 | 687.8 | 0.3722
280.65 K, x2 = 0.302 | 695.2 | 0.4154
280.65 K, x2 = 0.401 | 704.9 | 0.4927
280.65 K, x2 = 0.496 | 714.7 | 0.5741
280.65 K, x2 = 0.6 | 726.1 | 0.6809
280.65 K, x2 = 0.701 | 737.4 | 0.7884
280.65 K, x2 = 0.793 | 753.9 | 0.9561
280.65 K, x2 = 0.901 | 774.7 | 1.191
283.15 K, x2 = 0.101 | 679.8 | 0.3352
283.15 K, x2 = 0.198 | 685.5 | 0.3635
283.15 K, x2 = 0.302 | 692.9 | 0.4042
283.15 K, x2 = 0.401 | 702.7 | 0.4766
283.15 K, x2 = 0.496 | 712.4 | 0.5537
283.15 K, x2 = 0.6 | 723.8 | 0.6543
283.15 K, x2 = 0.701 | 735.2 | 0.7562
283.15 K, x2 = 0.793 | 751.7 | 0.9147
283.15 K, x2 = 0.901 | 772.5 | 1.136
285.65 K, x2 = 0.101 | 677.5 | 0.3283
285.65 K, x2 = 0.198 | 683.2 | 0.3549
285.65 K, x2 = 0.302 | 690.6 | 0.3934
285.65 K, x2 = 0.401 | 700.4 | 0.4614
285.65 K, x2 = 0.496 | 710.1 | 0.5343
285.65 K, x2 = 0.6 | 721.5 | 0.629
285.65 K, x2 = 0.701 | 733 | 0.7257
285.65 K, x2 = 0.793 | 749.5 | 0.8754
285.65 K, x2 = 0.901 | 770.4 | 1.085
288.15 K, x2 = 0.101 | 675.2 | 0.3215
288.15 K, x2 = 0.198 | 680.9 | 0.346
288.15 K, x2 = 0.302 | 688.3 | 0.383
288.15 K, x2 = 0.401 | 698.1 | 0.4239
288.15 K, x2 = 0.496 | 707.9 | 0.5159
288.15 K, x2 = 0.6 | 719.3 | 0.6052
288.15 K, x2 = 0.701 | 730.8 | 0.6967
288.15 K, x2 = 0.793 | 747.3 | 0.8384
288.15 K, x2 = 0.901 | 768.2 | 1.036
290.65 K, x2 = 0.101 | 672.8 | 0.3147
290.65 K, x2 = 0.198 | 678.6 | 0.3366
290.65 K, x2 = 0.302 | 686 | 0.3728
290.65 K, x2 = 0.401 | 695.8 | 0.433
290.65 K, x2 = 0.496 | 705.5 | 0.498
290.65 K, x2 = 0.6 | 717 | 0.5822
290.65 K, x2 = 0.701 | 728.5 | 0.6691
290.65 K, x2 = 0.793 | 745.1 | 0.8031
290.65 K, x2 = 0.901 | 766 | 0.9898
293.15 K, x2 = 0 | 659.8 | 0.2979
293.15 K, x2 = 0.101 | 670.5 | 0.308
293.15 K, x2 = 0.198 | 676.2 | 0.3264
293.15 K, x2 = 0.302 | 683.7 | 0.3597
293.15 K, x2 = 0.401 | 693.5 | 0.3995
293.15 K, x2 = 0.496 | 703.2 | 0.4493
293.15 K, x2 = 0.6 | 714.7 | 0.5606
293.15 K, x2 = 0.701 | 726.2 | 0.643
293.15 K, x2 = 0.793 | 742.8 | 0.7696
293.15 K, x2 = 0.901 | 763.9 | 0.9463
295.65 K, x2 = 0.101 | 668.2 | 0.3016
295.65 K, x2 = 0.198 | 673.9 | 0.3161
295.65 K, x2 = 0.302 | 681.4 | 0.3499
295.65 K, x2 = 0.401 | 691.1 | 0.3949
295.65 K, x2 = 0.496 | 700.9 | 0.4437
295.65 K, x2 = 0.6 | 712.4 | 0.5401
295.65 K, x2 = 0.701 | 724 | 0.6182
295.65 K, x2 = 0.793 | 740.6 | 0.7377
295.65 K, x2 = 0.901 | 761.7 | 0.9052
298.15 K, x2 = 0 | 655.3 | 0.2865
298.15 K, x2 = 0.101 | 665.9 | 0.2953
298.15 K, x2 = 0.198 | 671.5 | 0.3049
298.15 K, x2 = 0.302 | 679 | 0.3398
298.15 K, x2 = 0.401 | 688.8 | 0.3755
298.15 K, x2 = 0.496 | – | 0.4288
298.15 K, x2 = 0.6 | 710.1 | 0.5021
298.15 K, x2 = 0.701 | 721.7 | 0.5944
298.15 K, x2 = 0.793 | 738.3 | 0.7071
298.15 K, x2 = 0.901 | 759.5 | 0.8663
